From article PMC12763877 (Journal of Experimental & Clinical Cancer Research : CR, 2025)
Where two headings read alike, the source gives them in different places.

Experiments:
[1] = system: zebrafish retinal vasculature; test: Zebrafish hypoxia-induced retinal vascular abnormality model; assay type: in vivo, zebrafish (Danio rerio); details: CoCl2 5 mM + GS401 2.5 ug/ml; compounds at concentrations < LD50 (A-2 1 µM); imaged at 5 dpf
Method: (§1) Transgenic zebrafish Tg(flk: EGFP) were obtained from the China Zebrafish Resource Center and maintained at 28 ± 1 °C under a 14-hour light/10-hour dark cycle. […] Survival rates were recorded to calculate the median lethal concentration (LC₅₀). For the retinal angiogenesis assay, embryos at 1 day post fertilization (dpf) were transferred to E3 medium containing 5 mM CoCl₂·6 H₂O and 2.5 µg/mL GS4012 to induce hypoxia and abnormal vessel formation. At 3 dpf, test compounds were added and incubation continued until 5 dpf. Blank, model, and vehicle (≤ 0.1% DMSO) controls were included, with at least three replicates per group (n = 10–15 embryos). At 5 dpf, retinal vasculature was imaged using fluorescence microscopy and analyzed for branching number, vessel length, and density using ImageJ. Data are presented as mean ± standard deviation (SD) and analyzed using one-way ANOVA followed by Tukey’s post hoc test, with p < 0.05 considered statistically significant.
Furthermore, we established a hypoxia-induced vascular dysregulation model with CoCl2 (5mM) and a VEGF inductive agent GS401 (2.5 ug/ml) in zebrafish embryos to assess the capacity of candidate compounds to regulate vascular normalization. Following Zebrafish toxicity profiling, 8 candidate compounds were administered at optimized concentrations (< LD50) to treat the zebrafish vascular abnormality model separately. […]

HUVEC [2] = test: Sulforhodamine B proliferation assay; assay type: cell-based, human; details: for IC50: Homo sapiens, HUVEC, read-out: IC50, HUVEC proliferation
Method: The culture medium was aspirated from the plates, and cells were fixed with 10% trichloroacetic acid (TCA) for 30 min. The plates were then washed twice with distilled water and air-dried. Subsequently, 0.4% sulforhodamine B (SRB) solution was added, and the plates were stained on a shaker for 20 min. The staining solution was discarded, and excess dye was removed by washing with freshly prepared 1% acetic acid. After air-drying, 10 mM Tris solution was added to each well. The plates were agitated on a shaker for 5 min to dissolve the dye, and the absorbance was measured at 560 nm using a microplate reader.
Angiogenesis is a multi-step process requiring coordinated endothelial functions, such as cell migration, proliferation, and extracellular matrix remodeling. […] Moreover, in the later stages of angiogenesis, vascular endothelial cells undergo proliferation and migration and further align to form cord-like, lumen-like structures(21). Thus, we conducted a vascular tube formation assay to evaluate the effect of candesartan on vascular normalization.

HUVEC [3] = test: Tube formation assay; assay type: cell-based, human; details: candesartan 15, 7.5, 3.75 µM; sunitinib 2 µM
Method: The 96-well plate was coated with 50 µl matrix glue per well, and then HUVEC was inoculated into the 96-well plate coated with matrix glue with a density of 4 × 10^4 cells per well. Photos were taken with an optical microscope (Nikon, China) after culture at 37℃ and 5% CO2 for 6–8 h, and the length of the generated blood vessels was analyzed using ImageJ.

APLNR = biological target: T1, APLNR (Homo sapiens, UniProt P35414); test: FLIPR Calcium 6 assay, inhibition of Apelin-13-induced calcium flux; assay type: cell-based; design: expressed in transfected cells; host or cells: HEK293
T1 sequence (P35414 1-380): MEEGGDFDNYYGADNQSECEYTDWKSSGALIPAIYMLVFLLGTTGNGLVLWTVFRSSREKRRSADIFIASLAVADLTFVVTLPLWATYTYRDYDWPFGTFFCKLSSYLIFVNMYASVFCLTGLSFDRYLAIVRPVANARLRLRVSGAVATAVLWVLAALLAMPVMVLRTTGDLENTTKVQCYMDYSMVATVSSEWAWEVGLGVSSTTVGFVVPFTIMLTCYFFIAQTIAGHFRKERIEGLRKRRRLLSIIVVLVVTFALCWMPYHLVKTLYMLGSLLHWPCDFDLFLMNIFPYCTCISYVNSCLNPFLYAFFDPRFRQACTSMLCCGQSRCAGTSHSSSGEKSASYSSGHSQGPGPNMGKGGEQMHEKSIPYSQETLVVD
Method: HEK293 cells stably expressing APLNR were seeded in 96-well plates (20,000 cells/well) and loaded with Calcium 6 dye (Molecular Devices) for 2 h. Candidate compounds dissolved in DMSO were applied at 2 µM for 15 min, followed by stimulation with the endogenous agonist Apelin-13 (100 nM). Real-time intracellular calcium flux was quantified using FLIPR Tetra® System (470–495 nm excitation/515–575 nm emission).
These candidates were further evaluated for APLNR inhibitory activity at the concentration of 2 µM by using a FLIPR® Calcium 6 Assay Kit, which quantifies ligand-induced intracellular calcium flux.

[4] = system: 4T1 cells (orthotopic breast cancer); test: Anti-tumor efficacy in breast cancer mouse model, alone or with Sunitinib; assay type: in vivo, BALB/c mice
Method: Female BABL/c mice aged 6–8 weeks were purchased from Beijing SPF Biological Co., LTD. 4T1 cells in good growth condition were collected and injected in situ into the mammary fat pad of female BALB/c mice at a density of 2 × 10⁶ cells per mouse. […] When the tumor size increased to approximately 1200 mm^3, we will conduct further tests. It should be pointed out that, when studying vascular leakage, DyLight™ 649-labeled tomato lectin (Tomoto-lectin) was injected intravenously into the mice via the tail vein two hours prior to tissue collection. The tumor tissues were then excised. Half of each tumor was fixed in 4% paraformaldehyde and subsequently processed for paraffin embedding and immunofluorescence staining. The remaining half was immediately frozen in liquid nitrogen and prepared as frozen sections for further experimental procedures.
Paraffin-embedded mouse tumor tissue sections were deparaffinized, rehydrated, and fixed with 4% paraformaldehyde at room temperature for 20 min. After washing with PBS, the sections were permeabilized with 1% Triton X-100 (Solarbio, China) for 15 min at room temperature, followed by blocking with 5% bovine serum albumin (BSA) in PBS containing 0.1% Triton X-100 for 1 h at room temperature to reduce nonspecific binding. […] After washing, the sections were further incubated overnight at 4 °C with primary antibodies against dsDNA and HSP60. The next day, the sections were incubated with Alexa Fluor 647-conjugated goat anti-rabbit IgG (H + L) secondary antibody (catalog no. A0468, Beyotime Biotechnology, China) for 1 h at room temperature in the dark. Nuclear staining was performed using DAPI (catalog no. C0060, Solarbio, China).
To observe metastasis, tissues were harvested and fixed in Bouin’s solution (saturated picric acid 75 ml + 40% formaldehyde 25 ml + glacial acetic acid 5 ml). After fixation, tissues were stained with picric acid to visualize metastatic nodules, which appeared as distinct lesions against the background tissue.

HUVEC [5] = test: Wound healing and Transwell assays; assay type: cell-based, human; details: candesartan 15, 7.5, 3.75 µM; sunitinib 2 µM; 48 h
Method: HUVEC cells were digested and inoculated into 6-well plates, with 1 × 10^5 cells added to each hole. On the second day, the gun head was drawn vertically along the edge of the upper lid of the hole plate. The cells were washed twice with PBS, the scratched cells were removed, and the serum free medium containing drugs was added. The photos were taken and recorded under the microscope for 0 h and cultured in a 5% CO2 incubator at 37℃. After 48 h, the sample was taken and photographed for recording. The cell scratch area was calculated with Image J software.
Migration assays were performed using the Transwell cell culture insert. HUVEC (3 × 10^4 cells) were suspended with 100µL serum-free medium containing different concentrations of compounds and placed in the upper layer of the Transwell cell culture insert, and 300µL medium containing 10% FBS was placed below the cell-permeable membrane. Following an incubation (48 h), the cells that had migrated through the membrane were stained with 0.2% crystal violet for 30 min and count.

HUVEC [6] = test: ROS generation assay (DCFH-DA flow cytometry); assay type: cell-based, human; details: 3.75-15 µM
Method: Flow cytometry was performed to measure intracellular reactive oxygen species (ROS) levels using DCFH-DA (2’,7’-Dichlorodihydrofluorescein diacetate). Cells were collected and stained with DCFH-DA, followed by incubation at 37℃ for 30 min in the dark. Subsequently, the cell populations were analyzed by flow cytometry.

zebrafish embryos = test: Zebrafish embryo toxicity; assay type: in vivo, zebrafish (Danio rerio); details: embryos exposed 12 to 48 hpf, survival
Method: as §1
The zebrafish (Danio rerio) model was employed due to its distinct advantages, the optical transparency, which enable in vivo vascular visualization. […] Firstly, the 8 candidate compounds underwent preliminary toxicity evaluation in zebrafish embryos. […] At 48 hpf, the number of surviving embryos was quantified, and the lethal dose 50 (LD50) for each compound was determined based on the survival data. […]

[7] = candesartan 10 mg/kg, Sunitinib 40 mg/kg

Compound: CCOc1nc2cccc(C(=O)O)c2n1Cc1ccc(-c2ccccc2-c2nnn[nH]2)cc1 [Compound A-2, Candesartan]
- Effect on hypoxia-induced retinal vascular pathology (ectopic branching, vascular architecture) [1]: markedly attenuated these pathological features
- Cytotoxicity on HUVEC cells (HUVEC [2]; 15 µM): no significant cytotoxicity
- IC50 (HUVEC [2]; 48 h): 32.4 ± 1.69 µM
- IC50 (HUVEC [2]; 72 h): 27.1 ± 0.91 µM
- Tube formation: mean mesh size and total mesh area (HUVEC [3]): increase the mean mesh and the total meshe area
- Tube formation: number of junctions, total segment length, number of meshes (HUVEC [3]): significantly reduced the number of junctions, total segment length, and the number of meshes
- IC50 (APLNR; FLIPR system, read-out: IC50, inhibition of Apelin-13-mediated calcium mobilization): 1210 nM
- inhibition at 2 µM (APLNR; compound 2 µM, 15 min, then Apelin-13 100 nM, HEK293 cells stably expressing APLNR, read-out: Inhibition rate (2 μM, %)): 72.3%
- Tumor growth ([4]; candesartan 10 mg/kg once daily, Sunitinib 40 mg/kg every two days, intragastric, 14 days, vs vehicle): significantly reduce the tumor growth
- Coverage of pericytes on endothelial cells in tumors (CD31/α-SMA) [4, 7]: significantly increased
- Lung surface nodules / pulmonary metastasis [4, 7]: inhibited pulmonary metastasis of breast cancer
- Migratory and invasive capacities of HUVECs (HUVEC [5]): significantly reduced the migratory and invasive capacities of HUVECs
- ROS levels (HUVEC [6]): gradually increased with increasing drug concentration
- LD50(µM,48 h) (zebrafish embryos): 1.10 ± 0.12 µM
